{"source": "patent US20160039904A1", "about": "“STABILIZED SINGLE HUMAN CD4 DOMAINS AND FUSION PROTEINS” (priority 2013, published 2016)", "key": {"[1]": {"tested_on": "HIV-1 isolates from clades A to D, AE, and AG", "experiment": "TZM-bl cell-based neutralization assay, means over the panel (n=12)", "settings": "Table 6, all viruses, >167 nM assigned 200, >250 assigned 300"}, "[2]": {"tested_on": "HIV-1 CAM0015BBY.EC3", "experiment": "TZM-bl cell-based neutralization assay", "settings": "Table 6; CAM0015BBY.EC3, clade AG, R5"}, "[3]": {"tested_on": "HIV-1 PBL286.VRC36aPV", "experiment": "TZM-bl cell-based neutralization assay", "settings": "Table 6, clade C, R5"}, "[4]": {"tested_on": "HIV-1 GS-015.EC12", "experiment": "TZM-bl cell-based neutralization assay", "settings": "Table 6; GS-015.EC12, clade C, R5"}, "[5]": {"tested_on": "HIV-1 BZ167.ec9", "experiment": "TZM-bl cell-based neutralization assay", "settings": "Table 6; BZ167.ec9, clade B, X4"}, "[6]": {"experiment": "Stability against degradation in PBS at 37° C. (binding activity to gp140Con-s)", "type": "physicochemical", "quoted_text": "The proteins were then assessed for their stability against degradation during 15 days of incubation with PBS (see FIG. 12A) or human serum (see FIG. 12B) at 37° C."}, "[7]": {"tested_on": "HIV-1 primary isolates Bal and JRFL", "type": "cell-based", "settings": "in contrast to D1D2"}, "[8]": {"tested_on": "HIV-1 A07412VRC12A", "experiment": "TZM-bl cell-based neutralization assay", "settings": "Table 6, clade D, R5"}, "[9]": {"tested_on": "HIV-1 CM240.EC1", "experiment": "TZM-bl cell-based neutralization assay", "settings": "Table 6; CM240.EC1, clade AE, R5"}, "[10]": {"tested_on": "HIV-1 92UG037.8", "experiment": "Pseudotyped HIV-1 neutralization (HOS-CD4-CCR5 cells)", "type": "cell-based", "settings": "Table 3; 92UG037.8, clade A, R5", "method": "(§1) To determine the potency and breadth of HIV-1 neutralization by the D1 mutants, viruses pseudotyped with Envs from HIV-1 isolates representing clades A-E and using either CCR5 (R5) or CXCR4 (X4) or both (R5X4) as a coreceptor were included. Pseudoviruses were derived from 293T cells and a neutralization assay was performed in duplicate using HOS-CD4-CCR5 (for all R5 and dual tropic viruses) or HOS-CD4-CXCR4 cell lines as described in Chen et al., Proc. Natl. Acad. Sci. USA, 105: 17121-17126 (2008)). Luminescence was measured 48 hours post-infection and the percentage neutralization was calculated by the following formula: (1—average RLU of inhibitor-containing wells/average RLU or virus-only wells)×100."}, "[11]": {"tested_on": "HIV-1 JRFL", "experiment": "Pseudotyped HIV-1 neutralization (HOS-CD4-CCR5 cells)", "type": "cell-based", "settings": "R5", "method": "as §1"}, "[12]": {"tested_on": "HIV-1 Env Bal", "experiment": "HIV-1 Env-mediated cell-cell fusion", "type": "cell-based", "settings": "R5"}, "[13]": {"tested_on": "HIV-1 55815.EC3", "experiment": "TZM-bl cell-based neutralization assay", "settings": "Table 6; 55815.EC3, clade AG, R5"}, "[14]": {"tested_on": "HIV-1 KNH1144.EC1", "experiment": "TZM-bl cell-based neutralization assay", "settings": "Table 6; KNH1144.EC1, clade A, R5"}, "[15]": {"tested_on": "HIV-1 Bal.EC1 TC", "experiment": "TZM-bl cell-based neutralization assay", "settings": "Table 6, clade B, R5"}, "[16]": {"tested_on": "HIV-1 N1 1046.e3 PV", "experiment": "TZM-bl cell-based neutralization assay", "settings": "Table 6, clade AE, R5"}, "[17]": {"experiment": "Solubility of fusion proteins in PBS (concentration, centrifugation)", "type": "physicochemical", "method": "To evaluate the potential for further development as drugs, several drug-related properties, including solubility, stability, and aggregation propensity were tested."}}, "note": "Where two headings read alike, the source gives them in different places.", "data": [{"substance": "4Dm2m: bispecific multivalent fusion protein of mD1.22 and m36.4; two SEQ ID NO: 20 and two SEQ ID NO: 21 chains", "values": [{"measurement": "IC50", "setting": "[1]; read-out: IC50, arithmetic mean", "result": 0.72, "unit": "nM"}, {"measurement": "IC50", "setting": "[1]; read-out: IC50, geometric mean", "result": 0.28, "unit": "nM"}, {"measurement": "IC90", "setting": "[1]; read-out: IC90, geometric mean", "result": 2.4, "unit": "nM"}, {"measurement": "IC50", "setting": "[2]", "result": 0.72, "unit": "nM"}, {"measurement": "IC90", "setting": "[2]", "result": 7.4, "unit": "nM"}, {"measurement": "IC50", "setting": "[3]", "result": 2, "unit": "nM"}, {"measurement": "IC50", "setting": "[4]", "result": 0.022, "unit": "nM"}, {"measurement": "IC50", "setting": "[5]", "result": 0.077, "unit": "nM"}, {"measurement": "IC90", "setting": "[5]", "result": 0.5, "unit": "nM"}, {"measurement": "remained functional", "setting": "[6]; end of 15 days of incubation with PBS", "result": "about 90%"}, {"measurement": "amount of functional protein", "setting": "[6]; incubation in PBS for 10 days", "result": "no significant decrease"}, {"measurement": "enhancement of HIV-1 infectivity at low concentrations", "setting": "[7]", "result": "not enhance HIV-1 infectivity"}, {"measurement": "IC50", "setting": "[8]", "result": 0.75, "unit": "nM"}, {"measurement": "IC90", "setting": "[8]", "result": 5.7, "unit": "nM"}, {"measurement": "IC50", "setting": "[9]", "result": 0.45, "unit": "nM"}, {"measurement": "IC90", "setting": "[9]", "result": 3.7, "unit": "nM"}, {"measurement": "IC50", "setting": "[10]", "result": "0.051 ± 0.001", "unit": "nM"}, {"measurement": "IC90", "setting": "[10]", "result": "0.45 ± 0.01", "unit": "nM"}, {"measurement": "IC50", "setting": "[11]; Table 2, clade B", "result": 0.06, "unit": "nM"}, {"measurement": "IC90", "setting": "[11]; Table 2, clade B", "result": 0.29, "unit": "nM"}, {"measurement": "IC50", "setting": "[11]; Table 3, clade B", "result": "0.14 ± 0.01", "unit": "nM"}, {"measurement": "IC90", "setting": "[11]; Table 3, clade B", "result": "0.39 ± 0.04", "unit": "nM"}, {"measurement": "IC50", "setting": "[12]; Table 4, clade B", "result": 4.1, "unit": "nM"}, {"measurement": "IC50", "setting": "[12]; Table 5, clade B", "result": "4.1 ± 0.1", "unit": "nM"}, {"measurement": "IC50", "setting": "[13]", "result": 0.084, "unit": "nM"}, {"measurement": "IC90", "setting": "[13]", "result": 0.61, "unit": "nM"}, {"measurement": "IC50", "setting": "[14]", "result": 0.081, "unit": "nM"}, {"measurement": "IC90", "setting": "[14]", "result": 1, "unit": "nM"}, {"measurement": "IC50", "setting": "[15]", "result": 0.057, "unit": "nM"}, {"measurement": "IC90", "setting": "[15]", "result": 0.22, "unit": "nM"}, {"measurement": "IC90", "setting": "[16]", "result": 27, "unit": "nM"}, {"measurement": "precipitation on storage", "setting": "[17]; 4° C. for 2 weeks", "result": "no additional precipitation was observed"}, {"measurement": "concentration reached in PBS without visible precipitation after high-speed centrifugation", "setting": "[17]; PBS", "result": 25000, "unit": "µg/mL"}]}]}
